Assay results reported in patent publication US20100048457A1, “GLYCOPROTEIN FOR TREATING CHRONIC OBSTRUCTIVE PULMONARY DISEASES” (Guangzhou Konzern Pharmacetuical Co. Ltd, priority 2007, published 2010).

Columns and labels:
[1] = test system: isolated bronchitis in contractive state; test: Lung overfall of isolated bronchitis in contractive state, before and after dosing; design: species or system guinea pig; conditions: aminophylline group
Protocol: (§1) The isobarical lavage machine is infused with Locke's solution, 37° C., the level of bottom is 60-100 cm higher than the T pipe. Guinea pigs are narcosis under intraperitoneal anesthesia by 1.5 ml 1% pentobarbital. Take 2 ml blood from cervical artery for detection of inflammatory factors. Kill the animal and open its chest, separate and cut down the trachea, and then bring out the trachea and the lung together, place in the Locke's solution, 37° C. Extrude the air out of the lung, and ligate the trachea with sleeve and connect with the T pipe. Open the T pipe to let Locke's solution flow into the lung, adjust the velocity of flow to about 25 ml/min. Take 5 ml lavage fluid for detection of inflammatory factors. When the velocity of flow is stable, animals are given 0.5% ovalbumin to stimulate the twitching of bronchia. After 30 minutes, observe and record the flux per minute, 6-10 minutes.
After 6-minute stimulating, the lung overfall of isolated bronchitis becomes stable.

IL-2 = IL-2 in blood serum and BALF of asthmatic guinea pig (ELISA); assay type: in vivo; conditions: aminophylline group
Protocol: (§2) 11) IL-2, IL-4 assaying box for ELISA: provided by Shenzhen Jing Mei Co., Ltd.
as §1

[2] = test system: model animal with emphysema and pulmonary hypertension; test: Experimental emphysema and pulmonary hypertension model; assay type: in vivo, golden hamster
Protocol: Preparation of model animal with emphysema and pulmonary hypertension: choose 75 from 90 male golden hamster randomly, 100-150 g each, to make model mouse. The model-building is performed on elected 75 animals under intraperitoneal anesthesia. Then open the mouse and exposure its throat, insert a pipe and inject the medicine fluid (60 U/100 g weight) into the body through the pipe, then shake the animal to let the medicine equality. Animals are wake in several hours, and feed normally. Other 15 golden hamster are acted as normal control group (Group A), the same volume of saline is injected in each trachea of each animal.
After perfusion of the medicine by gavage, animals are killed to measure the following:
Right Systolic Pressure (RSP): animals are cut in the neck to expose the right jugular vein, then insert the pipe into the right jugular vein to right ventricle, the pipe also connects the physiological monitor (RM-6300, Japan) for blood pressure measuring. The right carotic artery is also exposed and cannulated for blood pressure measuring.
Right Ventricle Hypertrophy Index (RVHI): kill the animal by bleeding, open the chest and bring the heart out, then cut the right ventricle down. Wash the heart by saline, absorb the water by filter paper, and then weight the right ventricle, and weight the total weight of the left ventricle and atrioventricular septalium. RVHI=weight of right ventricle/(total weight of left ventricle and atrioventricular septalium)
Pneumonic bronchoalveolar lavage fluid analyse: isobarical lavage machine is infused with Locke's solution, 37° C., the level of bottom is 60-100 cm higher than the T pipe. Kill the animal and open its chest, separate and cut down the trachea, and then bring out the trachea and the lung together, place in the Locke's solution, 37° C. Extrude the air out of the lung, and ligate the trachea with sleeve and connect with the T pipe. Open the T pipe to let Locke's solution flow into the lung, adjust the velocity of flow to about 25 ml/min. Concentrate the lavage 400 g by the centrifugal for 10 minutes, remove the supernatant, then add physiological saline into the deposit to make the cell suspend. Count the number of cells of bronchoalveolar lavage fluid ([…]) by inverted microscope, four times for one sample. Count the number of cells (/ml/g) of bronchoalveolar lavage fluid (BALF). Dye the smear of the suspend with HE, then count the ratio of macrophage in cell types.
Statistic treatment: data is expressed by x±s, and analyzed by one-way ANOVA, and compare with each group by Newman-Keuls method, P<0.05 meants distinct difference.

IL-4 = IL-4 in blood serum and BALF of asthmatic guinea pig (ELISA); assay type: in vivo; conditions: aminophylline group
Protocol: as §2, §1

[3] = test system: model mouse with acute bronchitis; test: Cough of acute bronchitis (SO2 stimulation); assay type: in vivo; conditions: Dextromethorphan 15 mg/kg oral
Protocol: Preparation of model mouse with acute bronchitis: choose white mice, 20-25 g each, male or female. Pre-select method: place a utensil with 0.5 g anhydrous sodium sulfite in an 1 L beaker, add 50% vitriol 5 ml into the utensil, and place mice of each group into the beaker after 15 seconds, and take out the mice after 30 seconds. The mouse which starts cough in 3 minutes is an eligible mouse. Record the delitescence of cough of each animal, and record the times of cough of each animal. […] During the dosing, observe the whole condition of animals in each group, and give the above SO2 stimulation to them for 30 seconds in one hour after the last dosing. Record the delitescence of cough of each mouse, and record the times of cough of each animal in 3 minutes.

[4] = test system: model mouse with chronic bronchitis; test: Cough of chronic bronchitis (SO2 stimulation); assay type: in vivo; conditions: Dextromethorphan 15 mg/kg (positive control, also dexamethason 1.2 mg/kg)
Protocol: Preparation of model mouse with chronic bronchitis: choose 90 white mice, 20-25 g each, male or female Divide the mice randomly into six groups. In normal control group, no S02 stimulation is given, mice are feeding normally. In other groups, the following SO2 stimulation is given: place a utensil with 0.5 g anhydrous sodium sulfite in an 8 L bell cover, and place mice of each group into the bell cover, and add 50% vitriol 5 ml into the utensil, and take out the mice after 2 minutes; Once every day, 21 days.
During the dosing, observe the whole condition of animals in each group, and give the above SO2 stimulation to them in one hour after the last dosing. Record the delitescence of cough of each animal, and record the times of cough of each animal in 3 minutes.

[5] = test system: α-hemolytic streptococcus; test: Experimental treatment of infection by α-hemolytic streptococcus in vivo; conditions: Ofloxacin 500 mg/kg
Source text: (§3) 2.10.1 select some bacterial related to acute pharyngitis, such as Staphyloccocus aureus Rosenbach, and α-hemolytic streptococcus, inject above bacterial into animals, such as mouse, by intraperitoneal dosing or subcutaneous injection, which will make certain animal death. Dosed before infecting the bacterial, and dosed after infecting the bacterial, the animals will be observed for eating, drinking, and movement.
(§4) Observe and record the eating, drinking, and movement in 4 days as the normal value. Besides of control group, animals in other groups are injected 0.5 ml Staphyloccocus aureus Rosenbach by intraperitoneal dosing or subcutaneous injection In the next day, animals are feed 5 days by gavage, twice every day. Observe the condition of eating, drinking, and movement, and mean growth rates, and then compare with control group.
The other methods are the same as the section 2.10.1.

[6] = test system: Staphyloccocus aureus Rosenbach; test: Treatment of infection by Staphyloccocus aureus Rosenbach in vivo
Source text: as §3, §4

[7] = test system: model rat with chronic bronchitis; test: Treatment of pneumonia, histology of trachea and pneumonic tissue; assay type: in vivo, SD rat; conditions: positive group, dexamethason 1.2 mg/kg (FIG. 5), gavage 10 days
Protocol: Preparation of model rat with chronic bronchitis: choose 60 SD rats, 250-300 g each, male or female. Divide the rats randomly into six groups, one is normal control group, the other five groups are model groups which are modeling according to section 2.4.
During the dosing, observe the whole condition of animals in each group, and carry out the following procedures in ten days after the last dosing: The rats are narcosis under intraperitoneal anesthesia by 0.4 ml/100 g 10% chloral hydrate, and put on the operating table, open the neck and chest, bring out the trachea and pneumonic tissue, and then observe the condition of the sample. The sample is fixed by 10% formalin solution, and embedded by paraffin, and cut into slices, and dyed by HE. The inflammatory pathological changes are observed by microscope, including the integrality of epidermis, thickness of glands, infiltration of inflammatory cells in tracheal mucous, follicular lymph, and thickness of tracheal wall.

[8] = test system: ciliary movement in trachea mucous of rabbits; test: Ciliary movement in trachea mucous; design: species or system rabbit; key to Ciliary movement: +++: All ciliary active in field of vision:; ++: ⅓~⅔ ciliary active in field of vision:; +: Less than ⅓ ciliary active in field of vision:; −−: All ciliary inactive in field of vision:; conditions: Ach, Dosage (g/L) 0.1
Protocol: The trachea mucous is exposed and washed by Ringer's solution (37° C.), then observe the sample by anatomical lens.
Add an ink into trachea mucous, the ink will move to one way (towards larynx), measure the velocity by micrometer and stopwatch, then calculate the moving velocity of mucus moving (second/2 mm).

[9] = Ofloxacin 500 mg/kg, gavage twice every day

Cn1c(=O)c2[nH]cnc2n(C)c1=O [Aminophylline]
lung overfall of isolated bronchitis in contractive state, After dosing [1]: 17.13 ± 3.08
lung overfall of isolated bronchitis in contractive state, Before dosing ([1]; baseline before dosing): 9.45 ± 1.86
lung overfall of isolated bronchitis in contractive state, After dosing ([1]; listed as aminophylline): increases obviously
IL-2 in BALF (IL-2): 0.13 ± 0.08 b pg/ml
IL-2 in serum (IL-2): 1.45 ± 0.86 b pg/ml
amount of IL-2 in blood serum and BALF (IL-2; summary of table 9): decreases obviously
MS ([2]; aminophylline positive control group): 96.7 ± 9.6%
RVHI ([2]; aminophylline positive control group, gavage): 28.62 ± 8.81%
BALF ([2]; cells in bronchoalveolar lavage fluid, aminophylline positive control group): 364.8 ± 95.7 /mm^3
pathological changes of emphysema ([2]; comparing with the model group, aminophylline group): non-obviously improvement
IL-4 in BALF (IL-4): 26.81 ± 7.76 b pg/ml
IL-4 in serum (IL-4): 1.78 ± 1.56 b pg/ml
amount of IL-4 in blood serum and BALF (IL-4; summary of table 9): decreases obviously

COc1ccc2c(c1)[C@]13CCCC[C@@H]1[C@H](C2)N(C)CC3 [Dextromethorphan]
Delitescence ([3]; delitescence of cough): 30.40 ± 9.91
Times of Cough ([3]; in 3 minutes): 35.20 ± 5.65
Delitescence ([4]; delitescence of cough): 17.70 ± 4.521
Times of Cough ([4]; in 3 minutes): 77.60 ± 9.88

CC1COc2c(N3CCN(C)CC3)c(F)cc3c(=O)c(C(=O)O)cn1c23 (centres unmarked) [Ofloxacin]
After infection, dringking, Day 1 [5]: 2.3 mL
After infection, dringking, Day 2 [5]: 3.6 mL
After infection, dringking, Day 3 [5]: 3.8 mL
After infection, dringking, Day 4 [5]: 3.8 mL
After infection, dringking, Day 5 [5]: 4.2 mL
After infection, eating, Day 1 [5]: 2.1 g
After infection, eating, Day 2 [5]: 2.3 g
After infection, eating, Day 3 [5]: 2.9 g
After infection, eating, Day 4 [5]: 3.2 g
After infection, eating, Day 5 [5]: 4.5 g
After infection, dringking, Day 1 [6, 9]: 2.7 mL
After infection, dringking, Day 2 [6, 9]: 3.2 mL
After infection, dringking, Day 3 [6, 9]: 3.0 mL
After infection, dringking, Day 4 [6, 9]: 3.5 mL
After infection, dringking, Day 5 [6, 9]: 4.3 mL
After infection, eating, Day 1 [6, 9]: 1.9 g
After infection, eating, Day 2 [6, 9]: 2.5 g
After infection, eating, Day 3 [6, 9]: 3.2 g
After infection, eating, Day 4 [6, 9]: 3.6 g
After infection, eating, Day 5 [6, 9]: 3.9 g
Survive ([6]; of 15 animals, Ofloxacin group): 15

C[C@@H]1C[C@H]2[C@@H]3CCC4=CC(=O)C=C[C@]4(C)[C@@]3(F)[C@@H](O)C[C@]2(C)[C@@]1(O)C(=O)CO [dexamethason]
inflammatory pathological changes of trachea and pneumonic tissue (microscope) [7]: obviously different from the model control group

CC(=O)OCC[N+](C)(C)C.[Cl-] [Ach, Acetylcholine chloride]
Ciliary movement [8]: +++
Moving velocity ([8]; ink on trachea mucous): 5.36 ± 0.64 second/2 mm
